We go through one compound from ChEMBL document CHEMBL4831545, “Hormesis Effect of Berberine against Klebsiella pneumoniae Is Mediated by Up-Regulation of the Efflux Pump KmrA” (J Nat Prod, 2021).

Data set [1] concerns Acinetobacter baumannii. The data set can be described thus: Hormesis activity against Acinetobacter baumannii assessed as increase in antibiotic MIC by measuring atreonamMIC at 3 ug/ml incubated for 12 hrs by OD600 based analysis (reference value: 6.25 ug/ml). The class given is ADME, organism-based. The note with it: in vivo, dose 3 µg/ml.
Data set [2] concerns Acinetobacter baumannii. The data set can be described thus: Hormesis activity against overnight-compound treated Acinetobacter baumannii assessed as increase in antibiotic MIC by measuring chloramphenicol MIC at 3 ug/ml incubated for 12 hrs by OD600 based analysis (reference value: 6.25 ug/ml). The data set is classed as ADME, organism-based. The conditions noted are these: in vivo, dose 3 µg/ml.

Data set [3] has as its system Acinetobacter baumannii. The data set can be described thus: Hormesis activity against Acinetobacter baumannii assessed as promotion of bacterial growth by measuring prolonged logarithmic growth phase at 3 to 50 ug/ml measured for 24 hrs by OD600 based analysis. The class given is organism-based. The conditions noted are these: in vivo, dose 3-50 µg/ml.
For data set [4], the system named is Acinetobacter baumannii. The data set can be described thus: Hormesis activity against Acinetobacter baumannii assessed as increase in antibiotic MIC by measuring rifampicin MIC at 3 ug/ml incubated for 12 hrs by OD600 based analysis (reference value: 1.5625 ug/ml). The data set is classed as ADME, organism-based. The conditions noted are these: in vivo, dose 3 µg/ml.

For data set [5], the system named is Enterobacter cloacae. The data set can be described thus: Hormesis activity against Enterobacter cloacae assessed as increase in antibiotic MIC by measuring chloramphenicol MIC at 3 ug/ml incubated for 12 hrs by OD600 based analysis (reference value: 3.125 ug/ml). The class given is ADME, organism-based. The conditions noted are these: in vivo, dose 3 µg/ml.

Data set [6] relates to Klebsiella pneumoniae. As to the kind of experiment: Hormesis activity against overnight compound-treated Klebsiella pneumoniae deficient in KmrA gene expression assessed as increase in antibiotic MIC by measuring rifampicin MIC at 3 ug/ml incubated for 12 hrs by OD600 based analysis (reference value: 25 ug/ml). The data set is classed as ADME, organism-based. The conditions noted are these: in vivo, dose 3 µg/ml.

Data set [7] has as its system Klebsiella pneumoniae. As to the kind of experiment: Hormesis activity against overnight compound-treated Klebsiella pneumoniae assessed as increase in antibiotic MIC by measuring cefotaxime MIC at 3 ug/ml incubated for 12 hrs by OD600 based analysis (reference value: 0.39625 ug/ml). The class given is ADME, organism-based. The conditions noted are these: in vivo, dose 3 µg/ml.

The subject of data set [8] is Klebsiella pneumoniae. As to the kind of experiment: Hormesis activity against Klebsiella pneumonia assessed as promotion of bacterial growth by measuring increase in final OD600 at 3 ug/ml measured for 24 hrs in presence of 2 ug/ml tetracycline by OD600 based analysis. The conditions noted are these: in vivo, at 3 µg/mL. The class given is organism-based.
Data set [9] has as its system Klebsiella pneumoniae. The data set can be described thus: Hormesis activity against overnight compound-treated Klebsiella pneumoniae assessed as increase in antibiotic MIC by measuring rifampicin MIC at 3 ug/ml incubated for 12 hrs by OD600 based analysis (reference value: 25 ug/ml). The data set is classed as ADME, organism-based. The note with it: in vivo, dose 3 µg/ml.

Data set [10] relates to Enterobacter cloacae. As to the kind of experiment: Hormesis activity against Enterobacter cloacae assessed as increase in antibiotic MIC by measuring ciprofloxacin MIC at 3 ug/ml incubated for 12 hrs by OD600 based analysis (reference value: 0.0390625 ug/ml). The class given is ADME, organism-based. The conditions noted are these: in vivo, dose 3 µg/ml.
Data set [11] relates to Klebsiella pneumoniae. As to the kind of experiment: Hormesis activity against Klebsiella pneumoniae deficient in KmrA gene expression assessed as increase in antibiotic MIC by measuring chloramphenicol MIC at 3 ug/ml incubated for 12 hrs by OD600 based analysis (reference value: 6.25 ug/ml). The conditions noted are these: in vivo, dose 3 µg/ml. The class given is ADME, organism-based.

Data set [12] relates to Acinetobacter baumannii. As to the kind of experiment: Hormesis activity against Acinetobacter baumannii assessed as increase in antibiotic MIC by measuring chloramphenicol MIC at 3 ug/ml incubated for 12 hrs by OD600 based analysis (reference value: 6.25 ug/ml). The note with it: in vivo, dose 3 µg/ml. The data set is classed as ADME, organism-based.
The subject of data set [13] is Acinetobacter baumannii. The data set can be described thus: Hormesis activity against overnight-compound treated Acinetobacter baumannii assessed as increase in antibiotic MIC by measuring hygromycinMIC at 3 ug/ml incubated for 12 hrs by OD600 based analysis (reference value: 125 ug/ml). The class given is ADME, organism-based. The note with it: in vivo, dose 3 µg/ml.

Data set [14] has as its system Enterobacter cloacae. The data set can be described thus: Hormesis activity against Enterobacter cloacae assessed as increase in antibiotic MIC by measuring cefotaxime MIC at 3 ug/ml incubated for 12 hrs by OD600 based analysis (reference value: 1.5625 ug/ml). The class given is ADME, organism-based. The note with it: in vivo, dose 3 µg/ml.
Data set [15] concerns Klebsiella pneumoniae. As to the kind of experiment: Hormesis activity against Klebsiella pneumoniae deficient in KmrA gene expression assessed as increase in antibiotic MIC by measuring atreonamMIC at 3 ug/ml incubated for 12 hrs by OD600 based analysis (reference value: 1.5625 ug/ml). The data set is classed as ADME, organism-based. The note with it: in vivo, dose 3 µg/ml.

Data set [16] has as its system Klebsiella pneumoniae. As to the kind of experiment: Hormesis activity against overnight compound-treated Klebsiella pneumoniae assessed as increase in antibiotic MIC by measuring meropenem MIC at 3 ug/ml incubated for 12 hrs by OD600 based analysis (reference value: 0.39625 ug/ml). The data set is classed as ADME, organism-based. The note with it: in vivo, dose 3 µg/ml.

Data set [17] has as its system Klebsiella pneumoniae. As to the kind of experiment: Hormesis activity against overnight compound-treated Klebsiella pneumoniae deficient in KmrA gene expression assessed as increase in antibiotic MIC by measuring azithromycin MIC at 3 ug/ml incubated for 12 hrs by OD600 based analysis (reference value: 0.78125 ug/ml). The note with it: in vivo, dose 3 µg/ml. The data set is classed as ADME, organism-based.

Data set [18] has as its system Enterobacter cloacae. The data set can be described thus: Hormesis activity against Enterobacter cloacae assessed as increase in antibiotic MIC by measuring meropenem MIC at 3 ug/ml incubated for 12 hrs by OD600 based analysis (reference value: 0.1953 ug/ml). The data set is classed as ADME, organism-based. The note with it: in vivo, dose 3 µg/ml.
Data set [19] deals with Klebsiella pneumoniae. The data set can be described thus: Hormesis activity against overnight compound-treated Klebsiella pneumoniae deficient in KmrA gene expression assessed as increase in antibiotic MIC by measuring ciprofloxacin MIC at 3 ug/ml incubated for 12 hrs by OD600 based analysis (reference value: 0.0390625 ug/ml). The data set is classed as ADME, organism-based. The conditions noted are these: in vivo, dose 3 µg/ml.

Data set [20] concerns Enterobacter cloacae. The data set can be described thus: Hormesis activity against overnight compound-treated Enterobacter cloacae assessed as increase in antibiotic MIC by measuring ampicillin MIC at 3 ug/ml incubated for 12 hrs by OD600 based analysis (reference value: 25 ug/ml). The class given is ADME, organism-based. The note with it: in vivo, dose 3 µg/ml.
Data set [21] concerns Acinetobacter baumannii. The data set can be described thus: Hormesis activity against overnight-compound treated Acinetobacter baumannii assessed as increase in antibiotic MIC by measuring ampicillin MIC at 3 ug/ml incubated for 12 hrs by OD600 based analysis (reference value: 100 ug/ml). The note with it: in vivo, dose 3 µg/ml. The data set is classed as ADME, organism-based.

The test system of data set [22] is Enterobacter cloacae. The data set can be described thus: Hormesis activity against overnight compound-treated Enterobacter cloacae assessed as increase in antibiotic MIC by measuring ciprofloxacin MIC at 3 ug/ml incubated for 12 hrs by OD600 based analysis (reference value: 0.0390625 ug/ml). The note with it: in vivo, dose 3 µg/ml. The class given is ADME, organism-based.

Data set [23] deals with Klebsiella pneumoniae. The data set can be described thus: Hormesis activity against Klebsiella pneumoniae deficient in KmrA gene expression assessed as increase in antibiotic MIC by measuring hygromycinMIC at 3 ug/ml incubated for 12 hrs by OD600 based analysis (reference value: 12.5 ug/ml). The conditions noted are these: in vivo, dose 3 µg/ml. The data set is classed as ADME, organism-based.

In data set [24] the test system is Acinetobacter baumannii. The data set can be described thus: Hormesis activity against Acinetobacter baumannii assessed as increase in antibiotic MIC by measuring cefotaxime MIC at 3 ug/ml incubated for 12 hrs by OD600 based analysis (reference value: 12.5 ug/ml). The class given is ADME, organism-based. The note with it: in vivo, dose 3 µg/ml.

For `COc1ccc2cc3[n+](cc2c1OC)CCc1cc2c(cc1-3)OCO2` [BERBERINE], the MIC with Acinetobacter baumannii [1] is 6.25 µg/mL; in the data set on Acinetobacter baumannii [2] it was 6.25 µg/mL; in the data set with Acinetobacter baumannii [4] it was 3.125 µg/mL; in the data set with Enterobacter cloacae [5] it was 3.125 µg/mL; in the data set on Klebsiella pneumoniae [6], 25 µg/mL; with Klebsiella pneumoniae [7] it was 0.3962 µg/mL. In addition, the MIC is 50 µg/mL with Klebsiella pneumoniae [9]; 0.07812 µg/mL with Enterobacter cloacae [10]; 6.25 µg/mL in the data set on Klebsiella pneumoniae [11]; 6.25 µg/mL in the data set on Acinetobacter baumannii [12]; 250 µg/mL in the data set with Acinetobacter baumannii [13]; 3.125 µg/mL with Enterobacter cloacae [14]. Moreover, the MIC stood at 1.5625 µg/mL in the data set with Klebsiella pneumoniae [15]; 0.3962 µg/mL in the data set on Klebsiella pneumoniae [16]; 1.5625 µg/mL in the data set on Klebsiella pneumoniae [17]; 0.1953 µg/mL in the data set on Enterobacter cloacae [18]; 0.07812 µg/mL in the data set with Klebsiella pneumoniae [19]; 50 µg/mL with Enterobacter cloacae [20]. Also, the MIC came out at 200 µg/mL in the data set with Acinetobacter baumannii [21], 0.1562 µg/mL in the data set on Enterobacter cloacae [22], 12.5 µg/mL in the data set with Klebsiella pneumoniae [23] and 12.5 µg/mL in the data set on Acinetobacter baumannii [24]. The results for the Activity result with Acinetobacter baumannii [3] and with Klebsiella pneumoniae [8] were “Toxic” and 23%, respectively.
